Results as given in ChEMBL document CHEMBL3608209, “N-Aryl benzenesulfonamide inhibitors of [3H]-thymidine incorporation and β-catenin signaling in human hepatocyte-derived Huh-7 carcinoma cells” (Bioorg Med Chem Lett, 2015).

Legend:
Huh-7 [1] = assay: Inhibition of Wnt/beta catenin in human HuH7 cells assessed as decrease in TCF/LEF-dependent promoter activation at 10 uM after 36 hrs by TOPFlash luciferase reporter gene assay relative to control; assay type: cell-based
Huh-7 [2] = assay: Inhibition of Wnt/beta catenin in human HuH7 cells assessed as [3H]-thymidine incorporation at 10 uM by scintillation counting analysis relative to DMSO-treated control; values are per cent of control
Huh-7 [3] = assay: Inhibition of Wnt/beta catenin in human HuH7 cells assessed as [3H]-thymidine incorporation at 10 uM by scintillation counting analysis relative to DMSO-treated control; assay type: cell-based
Huh-7 [4] = assay: Inhibition of Wnt/beta catenin in human HuH7 cells assessed as [3H]-thymidine incorporation at 10 uM by scintillation counting analysis relative to FH535; assay type: cell-based

O=[N+]([O-])c1ccc(NS(=O)(=O)c2ccccc2)c2ccccc12
inhibition (Huh-7 [1]): 72%
level, % of control (Huh-7 [2]): 58%
inhibition (Huh-7 [3]): 42%
fold change (FC) (Huh-7 [4]): 1.2

COC(=O)c1cc(F)ccc1NS(=O)(=O)c1cc(Cl)ccc1Cl
inhibition (Huh-7 [1]): 61%
level, % of control (Huh-7 [2]): 93%
inhibition (Huh-7 [3]): 7%
fold change (FC) (Huh-7 [4]): 0.2

COC(=O)c1ccc(NS(=O)(=O)c2cc(Cl)ccc2Cl)c(C)c1
level, % of control (Huh-7 [2]): 82%
inhibition (Huh-7 [3]): 18%
fold change (FC) (Huh-7 [4]): 0.5

COC(=O)c1ccc(NS(=O)(=O)c2c(Cl)cccc2Cl)c(C)c1
level, % of control (Huh-7 [2]): 71%
inhibition (Huh-7 [3]): 29%
fold change (FC) (Huh-7 [4]): 0.8

Cc1cc(CO)ccc1NS(=O)(=O)c1cc(Cl)ccc1Cl
level, % of control (Huh-7 [2]): 33%
inhibition (Huh-7 [3]): 67%
fold change (FC) (Huh-7 [4]): 1.9

COC(=O)c1cc(Cl)ccc1NS(=O)(=O)c1cc(Cl)ccc1Cl
level, % of control (Huh-7 [2]): 106%
inhibition (Huh-7 [3]): 0%
fold change (FC) (Huh-7 [4]): 0

Cc1cc(CO)ccc1NS(=O)(=O)c1c(F)cccc1F
level, % of control (Huh-7 [2]): 62%
inhibition (Huh-7 [3]): 38%
fold change (FC) (Huh-7 [4]): 1.1

Cc1cc([N+](=O)[O-])ccc1NS(=O)(=O)c1cc(Cl)ccc1Cl
inhibition (Huh-7 [1]): 73%
level, % of control (Huh-7 [2]): 64%
inhibition (Huh-7 [3]): 36%

O=C(c1ccccc1)c1ccc(NS(=O)(=O)c2c(F)cccc2F)cc1
level, % of control (Huh-7 [2]): 67%
inhibition (Huh-7 [3]): 33%
fold change (FC) (Huh-7 [4]): 0.9

O=S(=O)(Nc1cccc(OCc2ccccc2)c1)c1c(F)cccc1F
level, % of control (Huh-7 [2]): 57%
inhibition (Huh-7 [3]): 43%
fold change (FC) (Huh-7 [4]): 1.2

O=[N+]([O-])c1ccc(NS(=O)(=O)c2c(Cl)cccc2Cl)c2ccccc12
inhibition (Huh-7 [1]): 47%
level, % of control (Huh-7 [2]): 74%
inhibition (Huh-7 [3]): 26%
fold change (FC) (Huh-7 [4]): 0.7

Cc1cc(CO)ccc1NS(=O)(=O)c1ccccc1
level, % of control (Huh-7 [2]): 47%
inhibition (Huh-7 [3]): 53%
fold change (FC) (Huh-7 [4]): 1.5

O=S(=O)(Nc1ccccc1Oc1ccccc1)c1c(F)cccc1F
level, % of control (Huh-7 [2]): 66%
inhibition (Huh-7 [3]): 34%
fold change (FC) (Huh-7 [4]): 0.9

O=S(=O)(Nc1ccccc1Oc1ccccc1)c1c(Cl)cccc1Cl
inhibition (Huh-7 [1]): 45%
level, % of control (Huh-7 [2]): 62%
inhibition (Huh-7 [3]): 38%
fold change (FC) (Huh-7 [4]): 1.1

O=S(=O)(Nc1cccc(OCc2ccccc2)c1)c1c(Cl)cccc1Cl
inhibition (Huh-7 [1]): 53%
level, % of control (Huh-7 [2]): 69%
inhibition (Huh-7 [3]): 31%
fold change (FC) (Huh-7 [4]): 0.9

O=[N+]([O-])c1ccc(NS(=O)(=O)c2cc(Cl)ccc2Cl)c2ccccc12
level, % of control (Huh-7 [2]): 52%
inhibition (Huh-7 [3]): 48%
fold change (FC) (Huh-7 [4]): 1.3

O=S(=O)(Nc1cccc(OCc2ccccc2)c1)c1ccccc1
level, % of control (Huh-7 [2]): 71%
inhibition (Huh-7 [3]): 29%
fold change (FC) (Huh-7 [4]): 0.8

Cc1cc(CO)ccc1NS(=O)(=O)c1c(Cl)cccc1Cl
inhibition (Huh-7 [1]): 13%
level, % of control (Huh-7 [2]): 27%
inhibition (Huh-7 [3]): 73%
fold change (FC) (Huh-7 [4]): 2

O=C(c1ccccc1)c1ccc(NS(=O)(=O)c2c(Cl)cccc2Cl)cc1
level, % of control (Huh-7 [2]): 67%
inhibition (Huh-7 [3]): 33%
fold change (FC) (Huh-7 [4]): 0.9

O=C(c1ccccc1)c1ccc(NS(=O)(=O)c2ccccc2)cc1
inhibition (Huh-7 [1]): 46%
level, % of control (Huh-7 [2]): 62%
inhibition (Huh-7 [3]): 38%
fold change (FC) (Huh-7 [4]): 1.1

O=[N+]([O-])c1ccc(NS(=O)(=O)c2cc(F)ccc2F)c2ccccc12
inhibition (Huh-7 [1]): 64%
level, % of control (Huh-7 [2]): 69%
inhibition (Huh-7 [3]): 31%
fold change (FC) (Huh-7 [4]): 0.9
